Measurements as given in patent US20250051407A1, “De novo designed sequence-specific DNA binding proteins” (University of Washington, priority 2023, published 2025).
“Also recorded” adds a separate entry of the source.

How the values were obtained:
13 unique dsDNA targets = experiment: All-by-all yeast surface display screen of DBP design hits; assay type: binding; details: for Target sequence preference: 13 unique dsDNA targets; for Number of the 13 tested DNA target sequences preferentially bound: 1 μM dsDNA with avidity, including designed target sequence; for Binding specificity versus design models: all-by-all screen with Rosetta-predicted motifs
Procedure: And an all-by-all screen of DBP design hits to 13 unique dsDNA targets was performed (FIG. 4, table 2). […] To try to understand these observed binding preferences, each tested DNA sequence was threaded onto each design complex model at all possible base pair alignments, the alternative complex models were relaxed with Rosetta™, and the model with the most favorable Rosetta™ ΔΔG was selected.
Saccharomyces cerevisiae EBY100 strain cultures were grown in C-Trp-Ura medium supplemented with 2% (w/v) glucose. For induction of expression, yeast cells were centrifuged at 6,000 g for 1 min and resuspended in SGCAA medium supplemented with 0.2% (w/v) glucose at the cell density of 1×10^7 cells per ml and induced at 30° C. for 16-24 h. Cells were washed with PBSF (PBS with 1% (w/v) BSA) and labeled with biotinylated targets using two labeling methods: with-avidity and without-avidity labeling. For the with-avidity method, the cells were incubated with biotinylated target, together with anti-c-Myc fluorescein isothiocyanate (FITC, Miltenyi Biotech) and streptavidin-phycoerythrin (SAPE, ThermoFisher). The concentration of SAPE in the with-avidity method was used at one-quarter of the concentration of the biotinylated targets. For the without-avidity method, the cells were first incubated with biotinylated targets, washed and secondarily labeled with SAPE and FITC.
(§1) For yeast display characterization of individual designs, including competition assays, DNA sequences encoding the proteins of interest were purchased as Integrated DNA Technologies (IDT) E-Blocks™, transformed into yeast cells, and incubated in 96 well culture plates. Labeling with biotinylated dsDNA targets and SAPE/FITC was performed in a 96 well plate format. For yeast display competition assays, labeling was performed without avidity using 1 μM biotinylated dsDNA duplex oligos and an excess of 8 μM non-biotinylated competitor dsDNA duplex oligos. […] Flow cytometry analysis was performed with an Attune NxT™ flow cytometer with autosampler. Flow cytometry data analysis was performed using custom python code and the CytoFlow™ python package. For each individual sample, gating of the expression population was performed using the CytoFlow™ Gaussian Mixture Model and the ratio of SAPE channel intensity to FITC channel intensity (binding signal/expression signal) was calculated for all gated expression events of the sample.

[1] = system: biotinylated target dsDNA with non-biotinylated competitor dsDNA; experiment: Yeast display competition assay with base-substituted competitor dsDNA; assay type: binding; details: for DNA binding site specificity: all possible base mutations at each position of the competitor oligo
Description: We used a yeast display competition assay to characterize the DNA binding site specificity of a subset of the designs (FIG. 1A-E, left; FIG. 5). Addition of non-biotinylated competitor dsDNA to biotinylated target sequence reduced binding signal by flow cytometry (FIG. 1A-E, middle). […] For example, in DBP6 (FIG. 1A) R31 and R36 in the design model form bidentate hydrogen bonds with the guanines of base pair positions G12 and C9, respectively, while T32 forms a hydrogen bond with C10.
as §1

dsDNA target = experiment: Site saturation mutagenesis (SSM) library sorting, protein-side footprinting; assay type: binding; details: for Tolerance of positions to substitution: interface, core and surface positions; for Substitutions improving binding: every residue substituted with each of the 20 amino acids
Procedure: As disclosed in the examples that follow, the contributions of each amino acid to binding for additional designs, high-resolution footprints of the binding surface as generated was assessed by sorting site saturation mutagenesis libraries (SSMs) in which every residue was substituted with each of the 20 amino acids one at a time for DBPs 1, 6, and 35. Permissible substitutions for many of the polypeptides of the disclosure are provided in columns 2 and 3 Tables 4-19.
Thus, in some embodiments, substitutions relative to the reference sequence are selected from residues listed in columns 2 or 3 of one of Tables 4-19. In other embodiments, substitutions relative to the reference sequence are selected from residues listed in column 2 of one of Tables 4-19. Column 2 lists the “best” substitutions, which retain or improve DNA target binding activity relative to the reference sequence. Column 3 lists “permissible” substitutions, which retain binding to the DNA target sequence.
To assess the contributions of each amino acid to binding for additional designs, high-resolution footprints of the binding surface as generated by sorting site saturation mutagenesis libraries (SSMs) in which every residue was substituted with each of the 20 amino acids one at a time for DBPs 1, 6, and 35. […] In a small number of cases, substitutions led to notable improvements in binding affinity.
Cell sorting of labeled yeast pools was performed using a Sony SH800S cell sorter. Libraries of designs were sorted using the with-avidity method for the first few rounds of screening to exclude weak binder candidates, followed by several without-avidity sorts with different concentrations of targets. For SSM libraries, two rounds of with-avidity sorts were applied and in the third round of screening the libraries were titrated with a series of decreasing concentrations of targets to enrich mutants with beneficial mutations.
The Pear program was used to assemble the fastq files from the deep sequencing runs. Translated, assembled reads were matched against the ordered design to determine the number of counts for each design in each pool. In each sequenced pool, binder enrichment was calculated by determining the percent of reads for each binder design in the pool and dividing this number by the same value in the naive expression sort pool. […] For SSM libraries, apparent SC50 was estimated using the fitting procedure described in Longxing et al. (15)

[2] = system: synTF-specific cis-regulatory elements (CRE) in HEK293T cells; experiment: Transcriptional activation by synTFs in HEK293T cells (ENGRAM); assay type: cell-based; details: DBP fused to GCN4 dimerization domain and VP64; HEK293T cells expressing PEmax; dependent on spacing between motifs
Description: Next, we investigated whether the DBPs can be used as activators in mammalian cells. A set of synthetic transcription factors (synTFs) were created by fusing the GCN4 dimerization domain and the VP64 activation domain to the C-termini of DBPs 9, 35opt, 48, 57, and 60 which recognize 3 unique motifs. The dimerization domain allows the DBPs to recognize a palindromic target sequence consisting of two binding motifs, improving the binding affinity to the DNA sequence (FIG. 2C). We created synTF specific cis-regulatory elements (CRE) with 4 repeats spaced by 6 bp to drive the expression of downstream genes, and used the ENGRAM (43) recording technology to measure the activity of the synTFs in HEK293 cells. In ENGRAM, each CRE drives the expression of a uniquely barcoded pegRNA, which upon expression is recorded into the DNA TAPE at the HEK3 locus by prime-editor (PEmax); the activity of individual synTFs can be measured as the abundance of the barcode on the DNA TAPE (FIG. 2C). We first tested 3 different spacings-1 bp, 3 bp, and 5 bp-between the palindromic binding motifs to maximize the recorder activity. 3 synTF specific recorders and 1 TCF-LEF-recorder (negative control) were mixed with ratio 2:2:2:1 and co-transfected with synTFs into the HEK293T cells expressing PEmax. Cells were harvested and analyzed 2 days post-transfection. After analyzing the barcode abundance on the DNA TAPE, we observed 3-5 fold activation for DBP9/DBP35 and DBP57/DBP60 (FIG. 2D).
HEK293T cells expressing PEmax™ were cultured in DMEM High glucose (GIBCO), supplemented with 10% Fetal Bovine Serum (Rocky Mountain Biologicals) and 1% penicillin-streptomycin (GIBCO). Cells were grown with 5% CO2 at 37° C. 1×10^5 cells were seeded on a 48-well plate a day before transfection. Enhancer plasmid and binder plasmid were mixed with a ratio of 2:1. Enhancer variants and background control were mixed with a ratio of 2:2:2:1. A total of 300 ng of plasmid were transfected using Lipofectamine™ 3000 (ThermoFisher, L3000015), following the manufacturer's protocol. Cells were harvested 2 days post-transfection. Genomic DNA was extracted based on the protocol described earlier (43). Briefly, cells were lysed using freshly prepared lysis buffer (10 mM Tris-HCl, pH 7.5; 0.05% SDS; 25 µg/ml protease (ThermoFisher)) for each well. The genomic DNA mixture was incubated at 50° C. for 1 h, followed by an 80° C. enzyme inactivation step for 30 min. The DNA TAPE was amplified from the genomic DNA directly for next generation sequencing. Recorded information was extracted via custom analysis code. Each enhancer has a unique barcode representing its activity. Transcription activation was measured as the fold change in the barcode abundance relative to the negative control barcode. All measurements were performed in triplicates.

Molecule | Target sequence preference (13 unique dsDNA targets) | DNA binding site specificity [1] | Tolerance of positions to substitution (dsDNA target) | Number of the 13 tested DNA target sequences preferentially bound (13 unique dsDNA targets) | Binding specificity versus design models (13 unique dsDNA targets) | Substitutions improving binding (dsDNA target) | Fold activation of synTFs measured as normalized barcode abundance in the DNA TAPE [2] | Number of base positions of specificity [1] [base positions]
DBP1: designed DNA-binding protein, SEQ ID NO: 1, DNA target A (TARELEVAALIAQGRSNREIAEELNISERTVERYVRRILRKLGLRNRAQIAAWVIRRS) | strong preference for 2 or 3 of the sequence targets | specificities consistent with the designed sidechain-base interactions | most positions at the interface and the core were largely conserved while positions at the surface were more tolerant of substitutions |  |  |  |  | 
DBP6: designed DNA-binding protein, SEQ ID NO: 4, DNA target B (DWAARAAAARRLRKERGLTQAELGELAGVSRTTVSRIELGRPDVSQASVDAVLAVL) | strong preference for only their designed target sequence | specificity for a 6 nucleotide stretch (TGCACA) with peripheral dependence on T8 and A13; also recorded: specificities consistent with the designed sidechain-base interactions; also recorded: specificity for the GCxG motif | most positions at the interface and the core were largely conserved while positions at the surface were more tolerant of substitutions | less than 3 | bound with specificity closely consistent with the design models | relatively few mutations at interface positions improved binding with the exceptions of L39, D43, and 548 |  | 
DBP35: designed DNA-binding protein, SEQ ID NO: 15, DNA target B (protein) GFGRAVKEKRKELGLTQKEFAEKAGLSRRTIIRIERGYIVPPKATKEKIAKALGTSVEELEQA |  | specificities consistent with the designed sidechain-base interactions | most positions at the interface and the core were largely conserved while positions at the surface were more tolerant of substitutions | less than 3 | bound with specificity closely consistent with the design models | substitutions of R33 and K18 improved binding | 3-5 fold | 3
